The subject of this series is Pancreatin. Kind of series: Protease stability in simulated intestinal fluid (Pancreatin-SIF, FaSSIF). The series is classed as in vitro ADME. The conditions noted are these: 1 μM peptide, 37° C.; for remaining at 1 h, 1 µM: 60 min, read-out: FaSSIF 60 (min), remaining percent of peptide; for remaining at 2 h, 1 µM: 120 min, read-out: FaSSIF 120 (min), remaining percent of peptide; for remaining at 4 h, 1 µM: 240 min, read-out: FaSSIF 240 (min), remaining percent of peptide. The procedure, abridged:
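Peptide (1 μM final) was incubated at 37° C in simulated intestinal fluid containing pancreatin (1 mg per 10 mL SIF concentrate). Samples were quenched with ethanol/0.1% HCOOH at 0, 60, 120 and 240 min and analysed by LC-MS/MS. Percent remaining is the peak area relative to time 0 (100%).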

Starred links: 1 amine or outer side, 2 acyl side, 3 side chain; linkers in the order of their positions; H or OH if unused. Positions of bridges follow the written chain, without caps; N, C: chain ends. Non-standard residues stand in square brackets, D forms with d. Residues, ends and D or L forms follow the SMILES beside them. *: point of attachment. X3 = CN(CCCCC(=O)N[C@@H](CS[*:2])C(=O)[*:1])[*:3]; Trp(7-Me) = Cc1cccc2c(C[C@H](N)C(=O)O)c[nH]c12; 2Nal = N[C@@H](Cc1ccc2ccccc2c1)C(=O)O; AEF = NCCOc1ccc(C[C@H](N)C(=O)O)cc1; X4 = CN(CCCCCC(=O)[*:2])[*:1]; αMeL = CC(C)C[C@](C)(N)C(=O)O; Thp = NC1(C(=O)O)CCOCC1; Me2NCH2CH2 = CN(C)CC*; Aib = CC(C)(N)C(=O)O; Ava = NCCCCC(=O)O; βAla = NCCC(=O)O; Sar = CNCC(=O)O

Usually amount remaining stands for what is left of the initial amount, in per cent. With `CC(C)C[C@@H](NC(=O)[C@H](CC(N)=O)NC(=O)[C@@H]1CC(=O)N(C)CCCCCC(=O)N[C@H]2CSSC[C@H](NC(=O)[C@H](CCC(N)=O)NC(=O)[C@H](Cc3c[nH]c4ccccc34)NC(=O)[C@H]([C@@H](C)O)NC(=O)[C@H](CC(N)=O)NC2=O)C(=O)N[C@@H](Cc2ccc(OCCN(C)C)cc2)C(=O)N[C@@H](Cc2ccc3ccccc3c2)C(=O)N[C@@](C)(CC(C)C)C(=O)N1)C(N)=O` [compound 40] ([X4]CNTWQCY(Me2NCH2CH2)[2Nal][αMeL]DN[dL]-NH2; disulfide 2-7; lactam N-11), the amount remaining at 1 h, 1 µM is 77%; the amount remaining at 2 h, 1 µM is 70%; the share remaining at 4 h, 1 µM was 54%.

`CC(=O)NCCCC[C@@H]1NC(=O)[C@H](Cc2c[nH]c3c(C)cccc23)NC(=O)[C@H]([C@@H](C)O)NC(=O)[C@H](CC(N)=O)NC(=O)[C@@H]2CSSC[C@H](NC1=O)C(=O)N[C@@H](Cc1ccc(OCCN(C)C)cc1)C(=O)N[C@@H](Cc1ccc3ccccc3c1)C(=O)NC1(CCOCC1)C(=O)N[C@H](C(=O)N[C@@H](CC(N)=O)C(=O)N[C@@H](Cc1c[nH]cn1)C(=O)NCCC(N)=O)CCC(=O)NCCCCC(=O)N2` [compound 49] ([Ava]CNT[Trp(7-Me)]K(Ac)CY(Me2NCH2CH2)[2Nal][Thp]ENH[βAla]-NH2; disulfide 2-7; lactam N-11): the fraction remaining at 1 h, 1 µM is 85%; the fraction remaining at 2 h, 1 µM was 75%; the share remaining at 4 h, 1 µM was 74%.

Take `CC(C)C[C@@H](NC(=O)[C@H](CC(N)=O)NC(=O)[C@@H]1CCC(=O)NCCCCC(=O)N[C@H]2CSSC[C@H](NC(=O)[C@H](CCC(N)=O)NC(=O)[C@H](Cc3c[nH]c4ccccc34)NC(=O)[C@H]([C@@H](C)O)NC(=O)[C@H](CC(N)=O)NC2=O)C(=O)N[C@@H](Cc2ccc(OCCN(C)C)cc2)C(=O)N[C@@H](Cc2ccc3ccccc3c2)C(=O)N[C@@](C)(CC(C)C)C(=O)N1)C(N)=O` [compound 10] ([Ava]CNTWQCY(Me2NCH2CH2)[2Nal][αMeL]EN[dL]-NH2; disulfide 2-7; lactam N-11): the amount remaining at 1 h, 1 µM is 84%; the fraction remaining at 2 h, 1 µM was 81%; the fraction remaining at 4 h, 1 µM is 80%.

Consider `CC(C)C[C@]1(C)NC(=O)[C@H](Cc2ccc3ccccc3c2)NC(=O)[C@H](Cc2ccc(OCCN(C)C)cc2)NC(=O)[C@@H]2CSSC[C@H](NC(=O)CCCCNC(=O)CC[C@@H](C(=O)N[C@@H](CC(N)=O)C(=O)N[C@@H](CC(N)=O)C(N)=O)NC1=O)C(=O)N[C@@H](CC(N)=O)C(=O)N[C@@H]([C@@H](C)O)C(=O)N[C@@H](Cc1c[nH]c3ccccc13)C(=O)N[C@@H](CCC(N)=O)C(=O)N2` [compound 27] ([Ava]CNTWQCY(Me2NCH2CH2)[2Nal][αMeL]ENN-NH2; disulfide 2-7; lactam N-11), for which the share remaining at 1 h, 1 µM was 81%; the fraction remaining at 2 h, 1 µM is 82%; the fraction remaining at 4 h, 1 µM is 73%.

Consider `CC(=O)N[C@H]1CCCCNC(=O)[C@@H]2CSSC[C@H](NC(=O)[C@H](CCC(N)=O)NC(=O)[C@H](Cc3c[nH]c4ccccc34)NC1=O)C(=O)N[C@@H](Cc1ccc(OCCN)cc1)C(=O)N[C@@H](Cc1ccc3ccccc3c1)C(=O)NC(C)(C)C(=O)N[C@H](C(=O)N[C@@H](CC(N)=O)C(=O)NCC(N)=O)CCC(=O)N(C)CCCCC(=O)N2` [compound 15] (Ac-KWQC[AEF][2Nal][Aib]ENG-NH2; linker 1-4-8 via X3), for which the share remaining at 1 h, 1 µM is 81%; the share remaining at 2 h, 1 µM was 65%; the share remaining at 4 h, 1 µM is 43%.

With `CC(=O)NCCCC[C@@H]1NC(=O)[C@H](Cc2c[nH]c3c(C)cccc23)NC(=O)[C@H]([C@@H](C)O)NC(=O)[C@H](CC(N)=O)NC(=O)[C@@H]2CSSC[C@H](NC1=O)C(=O)N[C@@H](Cc1ccc(OCCN(C)C)cc1)C(=O)N[C@@H](Cc1ccc3ccccc3c1)C(=O)N[C@@](C)(CC(C)C)C(=O)N[C@H](C(=O)N[C@@H](CC(N)=O)C(=O)N[C@@H](Cc1c[nH]cn1)C(=O)N(C)CC(N)=O)CCC(=O)NCCCCC(=O)N2` [compound 47] ([Ava]CNT[Trp(7-Me)]K(Ac)CY(Me2NCH2CH2)[2Nal][αMeL]ENH[Sar]-NH2; disulfide 2-7; lactam N-11), the share remaining at 1 h, 1 µM is 87%; the amount remaining at 2 h, 1 µM is 85%; the fraction remaining at 4 h, 1 µM is 82%.

On to `COc1ccc(C[C@@H]2NC(=O)[C@@H]3CSSC[C@H](NC(=O)CCCCNC(=O)CC[C@@H](C(=O)N[C@@H](CC(N)=O)C(=O)NCC(N)=O)NC(=O)C(C)(C)NC(=O)[C@H](Cc4ccc5ccccc5c4)NC2=O)C(=O)N[C@@H](CC(N)=O)C(=O)N[C@@H]([C@@H](C)O)C(=O)N[C@@H](Cc2c[nH]c4ccccc24)C(=O)N[C@@H](CCC(N)=O)C(=O)N3)cc1` [compound 4] ([Ava]CNTWQCY(Me)[2Nal][Aib]ENG-NH2; disulfide 2-7; lactam N-11), for which the fraction remaining at 1 h, 1 µM is 91%; the fraction remaining at 2 h, 1 µM is 82%; the fraction remaining at 4 h, 1 µM was 73%.

Values taken from patent publication US20260258084A1, “New Peptides as Selective IL-23 Receptor Antagonists” (Sanofi, priority 2022, published 2026).
